Data taken from patent US20020051808A1, “Drug delivery system involving interaction between protein or polypeptide and hydrophobic biodegradable polymer” (priority 1995, published 2002).

Experiments:
Assay type in all cases: physicochemical
[1] = Molecular interaction of salmon calcitonin with poly(glycolic-Co-lactic acid); conditions: for CALCITONIN CONC.: supernatant
Description: (§1) Approximately five mg of calcitonin were quantitatively weighed and placed in each of a series of 5 ml volumetric flasks. Hexafluoroacetone sesquihydrate (HFA) was added dropwise until the calcitonin dissolved completely. A 5% PGA in HFA solution was quantitatively added dropwise to each flask to provide a mass of PGA covering the range of 0 to 26.3 mg. The flasks were agitated for 5 minutes to mix the solution. Each flask was then filled to the 5 ml mark with phosphate buffer (pH 7.3). The addition of buffer precipitated the PGA plus any calcitonin that had bound with the polymer. The resulting mixture was centrifuged and the supernatant was analyzed spectrophotometrically for salmon calcitonin content. 26 mg of PGA (40,000 Mw) removed approximately 4.1 mg (83%) of salmon calcitonin.
The procedure of preparing the poly(glycolic-Co-lactic acid) (PGL) having a molecular weight of 50,000 microspheres was similar to that used for PGA, except the hexafluoro-2-propanol was substituted for HFA. Above 8 mg of PGL over 80% of salmon calcitonin was removed.

[2] = Molecular interaction of salmon calcitonin with polylactic acid; conditions: for CALCITONIN CONC.: supernatant
Description: as §1
The procedure for preparing the polylactic acid (PLA), dl-type having a molecular weight of 50,000, was similar to that used for PGA, except that methylene chloride was substituted for HFA and the calcitonin was suspended rather than dissolved in the methylene chloride. In addition, since methylene chloride and buffer are not miscible, salmon calcitonin was extracted from methylene chloride in buffer. The aqueous phase was separated, centrifuged and the supernatant was analyzed spectrophotometrically for salmon calcitonin.

[3] = In vitro release of salmon calcitonin from microspheres; conditions: in the phosphate buffer, pH 7.4, 37° C.
Description: Twenty mg of PGA-salmon calcitonin microspheres were loaded into a test tube. Ten ml of a 0.1M phosphate buffer, pH 7.4, containing EDTA were added and the tubes transferred to a 37° C. water bath. Nineteen μg salmon calcitonin/mg microspheres were released initially as a burst. This initial release was followed by a fast release of 50% of the total drug in less than two hours. At this point, a slow release followed and 22 μg salmon calcitonin/mg microspheres (22% of total drug) was released in the following 29 hours.

[4] = Molecular interaction of salmon calcitonin with polyglycolic acid (co-precipitation, supernatant assay); conditions: for CALCITONIN CONC.: supernatant
Description: The present example was intended to quantify chemical and/or physical association between salmon calcitonin and polyglycolic acid (PGA) having a molecular weight of 40,000 Daltons.
as §1

salmon calcitonin
% CALCITONIN REMOVED ([1]; PGL mass 0.00 mg): 11.1% | CALCITONIN REMOVED ([1]; PGL mass 0.00 mg): 0.591 mg | % CALCITONIN REMOVED ([1]; PGL mass 2.64 mg): 19.9% | CALCITONIN REMOVED ([1]; PGL mass 2.64 mg): 0.995 mg | % CALCITONIN REMOVED ([1]; PGL mass 4.13 mg): 43.9% | CALCITONIN REMOVED ([1]; PGL mass 4.13 mg): 2.15 mg | % CALCITONIN REMOVED ([1]; PGL mass 5.52 mg): 51.8% | CALCITONIN REMOVED ([1]; PGL mass 5.52 mg): 2.69 mg | % CALCITONIN REMOVED ([1]; PGL mass 6.51 mg): 59.8% | CALCITONIN REMOVED ([1]; PGL mass 6.51 mg): 2.87 mg | % CALCITONIN REMOVED ([1]; PGL mass 8.45 mg): 80.8% | CALCITONIN REMOVED ([1]; PGL mass 8.45 mg): 3.64 mg | % CALCITONIN REMOVED ([1]; PGL mass 11.53 mg): 87.5% | CALCITONIN REMOVED ([1]; PGL mass 11.53 mg): 4.37 mg | % CALCITONIN REMOVED ([1]; PGL mass 13.57 mg): 92.5% | CALCITONIN REMOVED ([1]; PGL mass 13.57 mg): 4.44 mg | % CALCITONIN REMOVED ([1]; PGL mass 20.97 mg): 91.6% | CALCITONIN REMOVED ([1]; PGL mass 20.97 mg): 4.95 mg | salmon calcitonin removed (percent) ([1]; above 8 mg of PGL): over 80% | CALCITONIN CONC. ([1]; PGL mass 0.00 mg): 0.941 mg/mL | CALCITONIN CONC. ([1]; PGL mass 2.64 mg): 0.801 mg/mL | CALCITONIN CONC. ([1]; PGL mass 4.13 mg): 0.550 mg/mL | CALCITONIN CONC. ([1]; PGL mass 5.52 mg): 0.501 mg/mL | CALCITONIN CONC. ([1]; PGL mass 6.51 mg): 0.386 mg/mL | CALCITONIN CONC. ([1]; PGL mass 8.45 mg): 0.172 mg/mL | CALCITONIN CONC. ([1]; PGL mass 11.53 mg): 0.125 mg/mL | CALCITONIN CONC. ([1]; PGL mass 13.57 mg): 0.0725 mg/mL | CALCITONIN CONC. ([1]; PGL mass 20.97 mg): 0.0908 mg/mL | % CALCITONIN REMOVED ([2]; PLA mass 0.00 mg): 1.03% | CALCITONIN REMOVED ([2]; PLA mass 0.00 mg): 0.055 mg | % CALCITONIN REMOVED ([2]; PLA mass 2.68 mg): 40.8% | CALCITONIN REMOVED ([2]; PLA mass 2.68 mg): 2.04 mg | % CALCITONIN REMOVED ([2]; PLA mass 4.81 mg): 47.2% | CALCITONIN REMOVED ([2]; PLA mass 4.81 mg): 2.36 mg | % CALCITONIN REMOVED ([2]; PLA mass 10.28 mg): 55.4% | CALCITONIN REMOVED ([2]; PLA mass 10.28 mg): 2.77 mg | % CALCITONIN REMOVED ([2]; PLA mass 14.95 mg): 72.4% | CALCITONIN REMOVED ([2]; PLA mass 14.95 mg): 3.62 mg | % CALCITONIN REMOVED ([2]; PLA mass 20.40 mg): 60.3% | CALCITONIN REMOVED ([2]; PLA mass 20.40 mg): 3.02 mg | CALCITONIN CONC. ([2]; PLA mass 0.00 mg): 1.05 mg/mL | CALCITONIN CONC. ([2]; PLA mass 2.68 mg): 0.592 mg/mL | CALCITONIN CONC. ([2]; PLA mass 4.81 mg): 0.488 mg/mL | CALCITONIN CONC. ([2]; PLA mass 10.28 mg): 0.386 mg/mL | CALCITONIN CONC. ([2]; PLA mass 14.95 mg): 0.276 mg/mL | CALCITONIN CONC. ([2]; PLA mass 20.40 mg): 0.417 mg/mL | time salmon calcitonin remains stable [3]: about 35 hours | salmon calcitonin removed ([4]; 26 mg of PGA (40,000 Mw)): approximately 4.1 mg | salmon calcitonin removed (percent) ([4]; 26 mg of PGA (40,000 Mw)): ~83% | % CALCITONIN REMOVED ([4]; PGA mass 0.00 mg): 1.90% | CALCITONIN REMOVED ([4]; PGA mass 0.00 mg): 0.099 mg | % CALCITONIN REMOVED ([4]; PGA mass 5.73 mg): 2.71% | CALCITONIN REMOVED ([4]; PGA mass 5.73 mg): 0.125 mg | % CALCITONIN REMOVED ([4]; PGA mass 7.81 mg): 22.3% | CALCITONIN REMOVED ([4]; PGA mass 7.81 mg): 1.07 mg | % CALCITONIN REMOVED ([4]; PGA mass 7.89 mg): 6.80% | CALCITONIN REMOVED ([4]; PGA mass 7.89 mg): 0.340 mg | % CALCITONIN REMOVED ([4]; PGA mass 10.4 mg): 54.0% | CALCITONIN REMOVED ([4]; PGA mass 10.4 mg): 2.54 mg | % CALCITONIN REMOVED ([4]; PGA mass 11.8 mg): 38.0% | CALCITONIN REMOVED ([4]; PGA mass 11.8 mg): 1.71 mg | % CALCITONIN REMOVED ([4]; PGA mass 13.2 mg): 32.7% | CALCITONIN REMOVED ([4]; PGA mass 13.2 mg): 1.64 mg | % CALCITONIN REMOVED ([4]; PGA mass 14.0 mg): 41.2% | CALCITONIN REMOVED ([4]; PGA mass 14.0 mg): 2.02 mg | % CALCITONIN REMOVED ([4]; PGA mass 15.8 mg): 53.7% | CALCITONIN REMOVED ([4]; PGA mass 15.8 mg): 2.69 mg | % CALCITONIN REMOVED ([4]; PGA mass 18.4 mg): 77.4% | CALCITONIN REMOVED ([4]; PGA mass 18.4 mg): 3.87 mg | % CALCITONIN REMOVED ([4]; PGA mass 21.0 mg): 82.1% | CALCITONIN REMOVED ([4]; PGA mass 21.0 mg): 4.10 mg | % CALCITONIN REMOVED ([4]; PGA mass 22.3 mg): 58.6% | CALCITONIN REMOVED ([4]; PGA mass 22.3 mg): 2.95 mg | % CALCITONIN REMOVED ([4]; PGA mass 23.7 mg): 72.4% | CALCITONIN REMOVED ([4]; PGA mass 23.7 mg): 3.62 mg | % CALCITONIN REMOVED ([4]; PGA mass 26.3 mg): 82.6% | CALCITONIN REMOVED ([4]; PGA mass 26.3 mg): 4.13 mg | CALCITONIN CONC. ([4]; PGA mass 0.00 mg): 1.020 mg/mL | CALCITONIN CONC. ([4]; PGA mass 5.73 mg): 0.895 mg/mL | CALCITONIN CONC. ([4]; PGA mass 7.81 mg): 0.746 mg/mL | CALCITONIN CONC. ([4]; PGA mass 7.89 mg): 0.932 mg/mL | CALCITONIN CONC. ([4]; PGA mass 10.4 mg): 0.432 mg/mL | CALCITONIN CONC. ([4]; PGA mass 11.8 mg): 0.558 mg/mL | CALCITONIN CONC. ([4]; PGA mass 13.2 mg): 0.673 mg/mL | CALCITONIN CONC. ([4]; PGA mass 14.0 mg): 0.576 mg/mL | CALCITONIN CONC. ([4]; PGA mass 15.8 mg): 0.461 mg/mL | CALCITONIN CONC. ([4]; PGA mass 18.4 mg): 0.226 mg/mL | CALCITONIN CONC. ([4]; PGA mass 21.0 mg): 0.175 mg/mL | CALCITONIN CONC. ([4]; PGA mass 22.3 mg): 0.422 mg/mL | CALCITONIN CONC. ([4]; PGA mass 23.7 mg): 0.276 mg/mL | CALCITONIN CONC. ([4]; PGA mass 26.3 mg): 0.174 mg/mL
